What was measured:
Assay in all cases: Test E flooded paddy water application
Format in all cases: in vivo
Settings in all cases: Flood, 21 days, scale 0 to 100 (0 no effect, 100 complete control)
[1] = system: barnyardgrass (Echinochloa crus-galli)
Method in brief: (§1)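 Weeds sown in sterilized Tama silt loam (2.6% organic matter), greenhouse 29.5/26.7° C, 16-h photoperiod; at 2.0–2.5-leaf stage pots flooded to 3 cm and compound added to paddy water. Visual rating vs untreated controls after 21 days, 0 (no effect) to 100 (complete control).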

[2] = system: bearded (brdd.) sprangletop (Leptochloa fusca ssp. fascicularis)
Method in brief: as §1

[3] = system: ducksalad (Heteranthera limosa)
Method in brief: as §1

[4] = system: early watergrass (Echinochloa oryzoides)
Method in brief: as §1

[5] = system: junglerice (Echinochloa colona)
Method in brief: as §1

[6] = system: late watergrass (Echinochloa oryzicola)
Method in brief: as §1

[7] = system: purple redstem (Ammannia coccinea)
Method in brief: as §1

[8] = system: rice flatsedge (Cyperus iria)
Method in brief: as §1

[9] = system: smallflower umbrella sedge (Cyperus difformis)
Method in brief: as §1

[10] = system: transplanted rice seedlings (Oryza sativa cv. ‘Japonica-M202’)
Method in brief: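 Response scored visually on a 0–100 scale (100 = complete control) at 21 days against untreated pots. Treatment was into paddy water 3 cm deep over silt loam, with plants at the 2.0–2.5-leaf stage, grown under 16-h light at 29.5/26.7 °C day/night.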

[11] = system: water seeded rice seedlings (Oryza sativa cv. ‘Japonica-M202’)
Method in brief: as §1

In the case of `CCOC(=O)c1nc(-c2ccc(I)cc2)nc(N)c1Cl` [Compound 133], the “Barnyardgrass plant response rating” value ([1]; 32 g ai/ha) was 0, the “Barnyardgrass plant response rating” value ([1]; 64 g ai/ha) was 0 and the “Barnyardgrass plant response rating” value ([1]; 125 g ai/ha) was 0. For the same compound, the “Barnyardgrass plant response rating” value ([1]; 250 g ai/ha) was 0, the “Plant response rating, Barnyardgrass” value ([1]; 16 g ai/ha) was 0 and the “Sprangletop, Brdd. plant response rating” value ([2]; 64 g ai/ha) was 0. For the same compound, the “Sprangletop, Brdd. plant response rating” value ([2]; 125 g ai/ha) was 0, the “Sprangletop, Brdd. plant response rating” value ([2]; 250 g ai/ha) was 0 and the “Plant response rating, Sprangletop, Brdd.” value ([2]; 16 g ai/ha) was 0. For the same compound, the “Plant response rating, Sprangletop, Brdd.” value ([2]; 32 g ai/ha) was 0, the “Ducksalad plant response rating” value ([3]; 32 g ai/ha) was 100 and the “Ducksalad plant response rating” value ([3]; 64 g ai/ha) was 100. The “Ducksalad plant response rating” value ([3]; 125 g ai/ha) was 100, the “Ducksalad plant response rating” value ([3]; 250 g ai/ha) was 100 and the “Plant response rating, Ducksalad” value ([3]; 16 g ai/ha) was 100. The “Watergrass, Early plant response rating” value ([4]; 64 g ai/ha) was 0, the “Watergrass, Early plant response rating” value ([4]; 125 g ai/ha) was 0 and the “Watergrass, Early plant response rating” value ([4]; 250 g ai/ha) was 0. The “Plant response rating, Watergrass, Early” value ([4]; 16 g ai/ha) was 0, the “Plant response rating, Watergrass, Early” value ([4]; 32 g ai/ha) was 0 and the “Junglerice plant response rating” value ([5]; 64 g ai/ha) was 0. For the same compound, the “Junglerice plant response rating” value ([5]; 125 g ai/ha) was 0, the “Junglerice plant response rating” value ([5]; 250 g ai/ha) was 0 and the “Plant response rating, Junglerice” value ([5]; 16 g ai/ha) was 0. The “Plant response rating, Junglerice” value ([5]; 32 g ai/ha) was 0, the “Watergrass, Late plant response rating” value ([6]; 64 g ai/ha) was 0 and the “Watergrass, Late plant response rating” value ([6]; 125 g ai/ha) was 0. For the same compound, the “Watergrass, Late plant response rating” value ([6]; 250 g ai/ha) was 0, the “Plant response rating, Watergrass, Late” value ([6]; 16 g ai/ha) was 0 and the “Plant response rating, Watergrass, Late” value ([6]; 32 g ai/ha) was 0. The “Redstem plant response rating” value ([7]; 64 g ai/ha) was 65, the “Redstem plant response rating” value ([7]; 125 g ai/ha) was 75 and the “Redstem plant response rating” value ([7]; 250 g ai/ha) was 85. For the same compound, the “Plant response rating, Redstem” value ([7]; 16 g ai/ha) was 0, the “Plant response rating, Redstem” value ([7]; 32 g ai/ha) was 20 and the “Flatsedge, Rice plant response rating” value ([8]; 64 g ai/ha) was 95. The “Flatsedge, Rice plant response rating” value ([8]; 125 g ai/ha) was 95, the “Flatsedge, Rice plant response rating” value ([8]; 250 g ai/ha) was 100 and the “Plant response rating, Flatsedge, Rice” value ([8]; 16 g ai/ha) was 30. The “Plant response rating, Flatsedge, Rice” value ([8]; 32 g ai/ha) was 65, the “Sedge, Umbrella plant response rating” value ([9]; 64 g ai/ha) was 95 and the “Sedge, Umbrella plant response rating” value ([9]; 125 g ai/ha) was 100. For the same compound, the “Sedge, Umbrella plant response rating” value ([9]; 250 g ai/ha) was 100, the “Plant response rating, Sedge, Umbrella” value ([9]; 16 g ai/ha) was 0 and the “Plant response rating, Sedge, Umbrella” value ([9]; 32 g ai/ha) was 0. The “Rice, Transplanted plant response rating” value ([10]; 64 g ai/ha) was 0, the “Rice, Transplanted plant response rating” value ([10]; 125 g ai/ha) was 0 and the “Rice, Transplanted plant response rating” value ([10]; 250 g ai/ha) was 0. For the same compound, the “Plant response rating, Rice, Transplanted” value ([10]; 16 g ai/ha) was 0, the “Plant response rating, Rice, Transplanted” value ([10]; 32 g ai/ha) was 0 and the “Rice, Water Seeded plant response rating” value ([11]; 64 g ai/ha) was 0. For the same compound, the “Rice, Water Seeded plant response rating” value ([11]; 125 g ai/ha) was 0, the “Rice, Water Seeded plant response rating” value ([11]; 250 g ai/ha) was 35 and the “Plant response rating, Rice, Water Seeded” value ([11]; 16 g ai/ha) was 0. For the same compound, the “Plant response rating, Rice, Water Seeded” value ([11]; 32 g ai/ha) was 0.
